Measurements taken from publication PMC9445041, “Development of a red fluorescent protein-based cGMP indicator applicable for live-cell imaging” (Communications Biology, 2022).

Biological target: T1, Red cGull (Mus musculus, UniProt Q8CG03)
T1 construct: gene Pde5a; N-terminal mouse APP fragment (aa 190-286) fused for bacterial expression; purified on Ni-NTA from E. coli JM109(DE3)
Assay: fluorescence intensity dose-response, four-parameter logistic fit
Assay type: binding

T1 sequence (Q8CG03 164-298): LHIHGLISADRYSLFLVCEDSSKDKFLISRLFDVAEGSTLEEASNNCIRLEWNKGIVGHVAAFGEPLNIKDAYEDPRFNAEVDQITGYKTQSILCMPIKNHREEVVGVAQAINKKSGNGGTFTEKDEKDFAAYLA

EC50: 330 nM
SMILES: Nc1nc2c(ncn2[C@@H]2O[C@@H]3COP(=O)(O)O[C@H]3[C@H]2O)c(=O)[nH]1 [cGMP]
